This note sets out measurements from patent US12677825B2, “Composition for protecting islet transplantation” (LG CHEM, LTD., priority 2020, dated 2026).

Experiment [1] relates to hIAPP+/− FVB/N mice islets. The experiment can be described thus: AO/PI staining viability during serum-deprived culture. The following applies: BSA culture 72 hours, with Compound 1 vs BSA alone; FIGS. 6A, 6B. The experiment is classed as cell-based, mouse. The method, then: Purified hIAPP^+/− FVB/N and C57BL/6J mouse were suspended in RPMI 1640 (Gibco, Grand Island, NY, USA) containing 100 IU/mL penicillin and 100 μg/mL streptomycin, and cultured at 37° C. in a fully humidified 5% CO2 atmosphere. Purified NHP islets were suspended in CMRL 1066 medium (Coming Life Sciences, Tewksbury, MA; catalog number 99-663-CV) containing 100 IU/mL penicillin and 100 μg/mL streptomycin, and cultured at 37° C. in a fully humidified 5% CO2 atmosphere. […]
Islet viability after isolation and culture was assessed using double fluorescence in acridine orange (0.67 […]) and propidium iodide (75 […]) (AO/PI) staining to visualize the living and dead islet cells simultaneously. Fluorescent imaging was performed with a fluorescence microscope (Nikon ECLIPSE 80i, Tokyo, Japan) and live and dead areas were quantified using NIS-Element AR 3.0 (Nikon). The islet viability (%) was calculated as living islet cells/total islet cells×100.

The test system of experiment [2] is islets from hIAPP+/− FVB/N mice. The experiment can be described thus: ATP assay of islets isolated with or without Compound 1. Type of experiment: cell-based, mouse. The following applies: 20 μM Compound 1 during islet isolation, vs non-treated group; FIG. 1B. The method, then: (§1) Mouse islets were isolated from 10- to 12-week-old hIAPP^+/− and C57BL/6 mice as described previously. Briefly, 0.8 mg/mL of collagenase P (Roche, Indianapolis, IN, USA) in Hank's buffered saline solution (HBSS, Sigma-Aldrich, St. Louis, MO, USA) with or without 20 μM Compound 1 were infused into the common bile duct for mouse pancreas digestion. Islets were purified from the digested pancreas using a Ficoll (Biochrom, Berlin, Germany) gradient and washed several times with 1 xHBSS. Isolated islets were cultured while free-floating in 10 mL of RPMI 1640 (Gibco, Grand Island, NY, USA). The medium was supplemented with 10% heat-inactivated FBS (fetal bovine serum) at 37° C. and 5% CO2 incubation prior to the ex vivo and in vivo studies.
ATP content of islets was assayed by a luminometric method. The samples were mixed with 200 μL of a commercially available lyophilized ATP monitoring reagent containing firefly luciferase and luciferin (ATP Bioluminescence Assay KIT CLS II, Roche Diagnostics) at first reconstituted in an imidazole buffer (100 mM, pH 7.75). The emitted light was measured in a luminometer (LKB 1250 luminometer). The adenine nucleotide content in samples was determined after correction of the control (no islet or cell) and calculated by reference to ATP standards treated in the same manner as the samples.

The subject of experiment [3] is STZ-induced diabetic hIAPP+/− FVB/N mice. Nature of the experiment: Marginal mass renal subcapsular islet transplantation, islets isolated with or without Compound 1. The experiment is classed as in vivo, mouse. The method, then: as §1
A marginal mass renal subcapsular islet transplantation model was used to assess the in vivo islet function of hIAPP^+/− mice. To induce diabetes, 180 mg/kg of streptozotocin (STZ, Sigma-Aldrich) was administered to 8- to 10-week-old FVB/N mice. Mice were considered to have diabetes when two consecutive blood glucose level readings were higher than 300 mg/dL. Equal amounts (400 IEQ of islets per recipient) of islets isolated from hIAPP^+/− mice were allocated to the following two groups: culture medium supplemented with 0.625% BSA (BSA group) and 0.625% BSA plus Compound 1 (BSA+Compound 1 group) to evaluate the combined effect of Compound 1 on islet mass and function during ex vivo culture. After culture for 72 hours, islets were transplanted into the renal subscapular space of diabetic hIAPP^+/− mice. The IE number was calculated using the Ricordi algorithm by classifying islets according to their diameter. After islet transplantation, non-fasting blood glucose levels were measured three times a week for the first 2 weeks and twice a week for the last 2 weeks.
At 4 weeks after transplantation, the transplantation site on the kidney of mouse were removed and embedded in paraffin. Immunohistochemical staining is briefly explained in the following. After deparaffinization, 4-μm tissue sections were stained with the polyclonal guinea pig anti-insulin antibody (1:1000, A0546, DAKO, Denmark), glucacon (1:500, ab92517, abcam, United Kingdom) and amyloid (1:2500, #44-344, Invitrogen). Stained slides were observed using an Olympus BX40 light microscope (Olympus, Japan) with […] numeric aperture and ×40/0.75 numeric aperture objectives. Photographic images were collected with a digital camera (Olympus DP50) and analyzed using the Image-Pro Plus 5.1 software.
For quantification of the DAB-labeled β-cells, all slides were imaged at 10× on a Vectra 3.0 automated quantitative pathology imaging system and analyzed using inForm software (all from Perkin-Elmer, Waltham, MA, USA). The transplanted renal tissue sections were scanned for image acquisition and then to set the transplanted tissue segmentation, a number of representative regions of transplanted islet cells and regions to be excluded from the analysis such as renal tissues were examined by learn-by-example interface. For the β-cell segmentation, a spectral library was used to identify the hematoxylin-stained nuclei and the DAB-stained cytoplasm (β-cells) within the transplanted tissue. With these training sets, the algorithm for identifying only the DAB-stained cells in the transplanted tissue was verified. All the captured 10× images were analyzed, and the DAB-stained transplanted β-cells were counted.

Experiment [4] deals with wild type C57BL/6 mouse islets. The experiment can be described thus: Effects of Compound 1 during isolation on wild type mouse islets (viability, function, cytokine expression). Type of experiment: cell-based. To be noted: Compound 1 during islet isolation; FIG. 2. The method, then:
as §1

Consider `O=S1(=O)CCN(Cc2cc(NC3CCOCC3)c3[nH]c(-c4ccccc4)cc3c2)CC1` [Compound 1], for which the “cell viability assessed by AO/PI staining” value in experiment [1] is listed as “significantly improved”. Besides, in experiment [2], the “levels of ATP” value is reported as “significantly elevated”. Further, the diabetes reversal rate result in experiment [3] (islets isolated with Compound 1, vs control group, FIG. 3C) is recorded as “better”. Further, in experiment [3] (islets isolated with Compound 1, vs control group, FIG. 3F), the “proportion of insulin positive area in the grafted tissue” value is on record as “greater”. For the same compound, the “glucose levels during intraperitoneal glucose tolerance test (IPGTT)” value in experiment [3] (islets isolated with Compound 1, vs control group, FIGS. 3D, 3E) is listed as “better”. Also, in experiment [3] (islets isolated with Compound 1, vs non-treated group, FIG. 3B), the post-transplant glucose levels entry was “markedly lower”. Besides, the “glycemia after removal of the grafted kidney” value in experiment [3] (islets isolated with Compound 1, FIG. 3B) was “regain of hyperglycemia”. Also, the “reproduction of isolation results (viability, function, pro-inflammatory cytokine expression) in wild type islets” value in experiment [4] was “reproduced”.
